Data taken from ChEMBL document CHEMBL2010729, “Facile synthesis of triterpenoid saponins bearing β-Glu/Gal-(1→3)-β-GluA methyl ester and their cytotoxic activities” (Bioorg Med Chem Lett, 2012).
pIC50: −log10 of the molar value. Active and inactive are the calls of the source. No cut-off for these calls is given here.

Key:
HepG2 = experiment: Cytotoxicity against human HepG2 cells after 48 hrs by MTT assay; type: functional, cell-based; conditions: HepG2, 48 h
MCF7 [1] = experiment: Cytotoxicity against human MCF7 cells after 48 hrs by MTT assay; type: functional, cell-based; conditions: MCF7, 48 h
K562 = experiment: Cytotoxicity against human K562 cells after 48 hrs by MTT assay; type: functional, cell-based; conditions: K562, 48 h
MCF7 [2] = experiment: Induction of apoptosis in human MCF7 cells assessed as pre-necrotic cells at 3 uM after 24 hrs using propidium iodide/annexin V staining by flow cytometry (reference value: 0.05 %); type: functional
MCF7 [3] = experiment: Induction of apoptosis in human MCF7 cells assessed as apoptotic cells at 2 uM after 24 hrs using propidium iodide/annexin V staining by flow cytometry (reference value: 3.07 %); type: functional
MCF7 [4] = experiment: Induction of apoptosis in human MCF7 cells assessed as late apoptotic cells at 3 uM after 24 hrs using propidium iodide/annexin V staining by flow cytometry (reference value: 0.11 %); type: functional
MCF7 [5] = experiment: Induction of apoptosis in human MCF7 cells assessed as apoptotic body formation at 1 to 3 uM after 24 hrs by DAPI staining based confocal laser scanning microscopy; type: functional, cell-based
MCF7 [6] = experiment: Induction of apoptosis in human MCF7 cells assessed as chromatin condensation at 1 to 3 uM after 24 hrs by DAPI staining based confocal laser scanning microscopy; type: functional, cell-based
MCF7 [7] = experiment: Induction of apoptosis in human MCF7 cells assessed as late apoptotic cells at 2 uM after 24 hrs using propidium iodide/annexin V staining by flow cytometry (reference value: 0.11 %); type: functional
MCF7 [8] = experiment: Induction of apoptosis in human MCF7 cells assessed as cell shrinkage at 1 to 3 uM after 24 hrs by DAPI staining based confocal laser scanning microscopy; type: functional
MCF7 [9] = experiment: Induction of apoptosis in human MCF7 cells assessed as membrane blebbing at 1 to 3 uM after 24 hrs by DAPI staining based confocal laser scanning microscopy; type: functional, cell-based
MCF7 [10] = experiment: Induction of apoptosis in human MCF7 cells assessed as pre-necrotic cells at 1 uM after 24 hrs using propidium iodide/annexin V staining by flow cytometry (reference value: 0.05 %); type: functional
MCF7 [11] = experiment: Induction of apoptosis in human MCF7 cells assessed as loss of mitochondrial membrane potential by JC-1 staining based flow cytometry; type: functional, cell-based
MCF7 [12] = experiment: Induction of apoptosis in human MCF7 cells assessed as apoptotic cells at 1 uM after 24 hrs using propidium iodide/annexin V staining by flow cytometry (reference value: 3.07 %); type: functional
MCF7 [13] = experiment: Induction of apoptosis in human MCF7 cells assessed as apoptotic cells at 3 uM after 24 hrs using propidium iodide/annexin V staining by flow cytometry (reference value: 3.07 %); type: functional
MCF7 [14] = experiment: Induction of apoptosis in human MCF7 cells assessed as late apoptotic cells at 1 uM after 24 hrs using propidium iodide/annexin V staining by flow cytometry (reference value: 0.11 %); type: functional
MCF7 [15] = experiment: Induction of apoptosis in human MCF7 cells assessed as pre-necrotic cells at 2 uM after 24 hrs using propidium iodide/annexin V staining by flow cytometry (reference value: 0.05 %); type: functional
MCF7 [16] = experiment: Induction of apoptosis in human MCF7 cells assessed as increase in ROS production after 24 hrs by fluorescence analysis; type: functional, cell-based

| SMILES | pIC50 (HepG2) | pIC50 (MCF7 [1]) | pIC50 (K562) | further results |
| --- | --- | --- | --- | --- |
| COC(=O)[C@H]1O[C@@H](O[C@H]2CC[C@]3(C)[C@H]4CC=C5[C@@H]6[C@@H](C)[C@H](C)CC[C@]6(C(=O)O)CC[C@@]5(C)[C@]4(C)CC[C@H]3C2(C)C)[C@H](O)[C@@H](O[C@@H]2O[C@H](CO)[C@@H](O)[C@H](O)[C@H]2O)[C@@H]1O | 4.35 | 4.63 | < 4.22 | – |
| COC(=O)[C@H]1O[C@@H](O[C@H]2CC[C@]3(C)[C@H]4CC=C5[C@@H]6[C@@H](C)[C@H](C)CC[C@]6(C(=O)O)CC[C@@]5(C)[C@]4(C)CC[C@H]3C2(C)C)[C@H](O)[C@@H](O[C@@H]2O[C@H](CO)[C@H](O)[C@H](O)[C@H]2O)[C@@H]1O | 4.33 | 4.66 | < 4.22 | – |
| COC(=O)[C@H]1O[C@@H](O[C@H]2CC[C@]3(C)[C@H]4CC=C5[C@@H]6CC(C)(C)CC[C@]6(C(=O)O)CC[C@@]5(C)[C@]4(C)CC[C@H]3C2(C)C)[C@H](O)[C@@H](O[C@@H]2O[C@H](CO)[C@H](O)[C@H](O)[C@H]2O)[C@@H]1O | 5.65 | 5.73 | 5.63 | Activity (MCF7 [2]): 18.81%; Activity (MCF7 [3]): 2.42%; Activity (MCF7 [4]): 29.61%; Activity (MCF7 [5]): Active; Activity (MCF7 [6]): Active; Activity (MCF7 [7]): 18.44%; Activity (MCF7 [8]): Active; Activity (MCF7 [9]): Active; Activity (MCF7 [10]): 2.2%; Activity (MCF7 [11]): Dose-dependent effect; Activity (MCF7 [12]): 4.33%; Activity (MCF7 [13]): 3.26%; Activity (MCF7 [14]): 8.43%; Activity (MCF7 [15]): 2.84%; Activity (MCF7 [16]): Dose-dependent effect |
| COC(=O)[C@H]1O[C@@H](O[C@H]2CC[C@]3(C)[C@H]4CC=C5[C@@H]6CC(C)(C)CC[C@]6(C(=O)O)CC[C@@]5(C)[C@]4(C)CC[C@H]3C2(C)C)[C@H](O)[C@@H](O[C@@H]2O[C@H](CO)[C@@H](O)[C@H](O)[C@H]2O)[C@@H]1O [SPINASAPONIN A METHYL ESTER] | 5.08 | 5.34 | 4.80 | – |
| COC(=O)[C@H]1O[C@@H](O[C@H]2CC[C@]3(C)[C@H]4C(=O)C=C5[C@@H]6C[C@@](C)(C(=O)O)CC[C@]6(C)CC[C@@]5(C)[C@]4(C)CC[C@H]3C2(C)C)[C@H](O)[C@@H](O[C@@H]2O[C@H](CO)[C@@H](O)[C@H](O)[C@H]2O)[C@@H]1O | < 4.22 | < 4.22 | < 4.22 | – |
| COC(=O)[C@H]1O[C@@H](O[C@H]2CC[C@]3(C)[C@H]4C(=O)C=C5[C@@H]6C[C@@](C)(C(=O)O)CC[C@]6(C)CC[C@@]5(C)[C@]4(C)CC[C@H]3C2(C)C)[C@H](O)[C@@H](O[C@@H]2O[C@H](CO)[C@H](O)[C@H](O)[C@H]2O)[C@@H]1O | < 4.22 | < 4.22 | < 4.22 | – |
